Measured values as given in patent US20070166547A1, “Use of a layer consisting of hydrophobic linear, or two-dimensional polycyclic aromatics as a barrier layer or an encapsulation and electric components constructed with a layer of this type and comprising organic polymers” (priority 2003, published 2007).

How the values were obtained:
[1] = system: embyronic fibroblasts of mouse NIH-3T3; assay: Endocellular pHi of fibroblasts by microspectrofluorimetry (FDA, BCECF-AM); format: cell-based; conditions: 10 mkM in medium with serum
Procedure: The effect of the compounds according to the invention on the endocellular pH, embyronic fibroblasts of mouse NIH-3T3 supplied by the All-Russian Collection of Cellular Cultures of the Institute of Cytology of the Russian Academy of Sciences St. Petersburg was investigated. The cells were grown in the DMEM (Sigma) medium containing 2.2 g/l of sodium bicarbonate with addition of 80.0 mkg/ml of gentamicin and 10.0% embryonal veal serum at a temperature of 37° C. in an atmosphere containing 5.0% of carbon dioxide. For these experiments use was also made of a medium buffer with 5.0 mM of HEPES and 15.0 mM of sodium bicarbonate without serum or with addition of 5.0% serum. The cells were calculated with the help of a hemocytometer. A share of the dead cells was determined by colouring trypan blue.
The measurements of the endocellular pHi were carried out with the help of colorants FDA (Sigma) and BCECF-AM (Calbiochem) on a microspectrofluorimeter by a standard technique (Koshevoy Yu. V., Akatov V. S., Grobova M. E. Microspectrofluorimeter for measuring endocellular pH (micro pH)”. Devices and equipment for studies in the field of physical-and-chemical biology and biotechnology. Pushchino, 1990. P. 8-14).
The cells at a temperature of 37° C. were colored within 5 minutes with 5.0 mkM PDA that before the colouring was prepared from a 10.0 mM solution in acetone by dilution for 30 minutes in a phosphatic buffer to 0.1 mM or 2.0 mkM 1.0 mM solution BCECF-AM in DMSO.
The two-wave method of determining pHi was used based on the ratio intensities of fluorescence of the cells on two wavelengths (Akatov V. S. et all), “Endocellular pH and substrate dependence of proliferation of fibroblasts of Chinese hamster, Cytology, 1991, 33 (7), p. 86-94). The fluorescence was excited by light at λ=490 nm, the emission was recorded simultaneously with two photomultipliers on wavelengths λ=535 nm and λ=570 nm. The K-ratio of the fluorescence on two wavelengths was determined with a deduction of the background fluorescence of the medium near the investigated cells for 40-60 individual cells, which are then averaged taking into account the measurement error. A thermostatically controlled table was used that allowed measurements to be conducted at a temperature of 37° C. An account was taken for the photodynamic damage of the pigmented cells during-long-time continuous illumination by excited light. The readings were taken from a section of the preparation exposed to light for not more than 5 minutes.
The calibration curves for determining the absolute pHi values by magnitude K were constructed using the Thomas technique (Thomas J. A., Bushbaum R. N., Zimniak A. w Racker E. “Intracellular pH measurements in Ehrlich ascites tumor cells utilizing spectroscopic probe generated in situ”, Biochemistry, 1979, v. 18, p. 2210-2218), for which case the pigmented cells treated for 5-10 minutes with carboxyacidic nigericyn (Calbiochem) at a concentration of 5-10 mkg/ml was placed in a solution with a high content of potassium—130 mM KCl, 1.0 mM MgCl2, 20.0 mM of HEPES) and with pH values from 6.2 to 7.6. The K values were measured in the media with different pH assuming that pHi of the cells equals to the pH of the medium due to the action of nigericyn, which exchanges potassium ions for protons and at a high content of potassium in the medium counterbalances the pH of the medium and cells. Calibration curves were used based on the fluorescence of same medium with addition of 5.0 mkM of fluorescence or BCECF were used to the control the stability of the of the instrument readings.
The correctness of the technique was confirmed in the experiments on measurements of pH values of cells treated with protonofor monencine raising pH of the cells due to replacement of sodium ions by protons, and by determining the dependence of the change of pHi on the change of the pH of the medium. […]

[2] = system: embyronic fibroblasts of mouse NIH-3T3; conditions: 1-5 mkM; 15-20 minutes; cells of mice NSO and NIH-3T3; cited from earlier work

CC[C@@]1([C@@H]2O[C@@H]([C@H]3O[C@@](O)(CO)[C@H](C)C[C@@H]3C)C[C@@H]2C)CC[C@H]([C@]2(C)CC[C@]3(C[C@H](O)[C@@H](C)[C@@H]([C@@H](C)[C@@H](OC)[C@H](C)C(=O)O)O3)O2)O1 [monensine, reference compound]
rise of pHi [1]: 0.12 pH unit | increase of pHi [2]: 0.2 unit
